The assay concerns the target GST-tagged-Wee1 kinase (Homo sapiens, UniProt P30291). Description: Wee1 time-resolved fluorescence equilibrium binding assay (displacement of Oregon Green-labeled ATP-competitive kinase probe). The protocol: Wee1 kinase was assayed using a time-resolved fluorescence equilibrium binding assay monitoring displacement of a rapidly reversible Oregon Green-labeled ATP-competitive kinase probe (N-(2-(2-(2-(4-(4-(5-chloro-4-(2-(1-hydroxycyclobutyl)thiazol-5-yl)-1H-pyrrolo[2,3-b]pyridin-2-yl)phenyl)piperazin-1-yl)ethoxy)ethoxy)ethyl)-2′,7′-difluoro-3′,6′-dihydroxy-3-oxo-3H-spiro[isobenzofuran-1,9′-xanthene]-5-carboxamide) by competitive Wee1 inhibitors.
Sequence of GST-tagged-Wee1 kinase (P30291 whole entry): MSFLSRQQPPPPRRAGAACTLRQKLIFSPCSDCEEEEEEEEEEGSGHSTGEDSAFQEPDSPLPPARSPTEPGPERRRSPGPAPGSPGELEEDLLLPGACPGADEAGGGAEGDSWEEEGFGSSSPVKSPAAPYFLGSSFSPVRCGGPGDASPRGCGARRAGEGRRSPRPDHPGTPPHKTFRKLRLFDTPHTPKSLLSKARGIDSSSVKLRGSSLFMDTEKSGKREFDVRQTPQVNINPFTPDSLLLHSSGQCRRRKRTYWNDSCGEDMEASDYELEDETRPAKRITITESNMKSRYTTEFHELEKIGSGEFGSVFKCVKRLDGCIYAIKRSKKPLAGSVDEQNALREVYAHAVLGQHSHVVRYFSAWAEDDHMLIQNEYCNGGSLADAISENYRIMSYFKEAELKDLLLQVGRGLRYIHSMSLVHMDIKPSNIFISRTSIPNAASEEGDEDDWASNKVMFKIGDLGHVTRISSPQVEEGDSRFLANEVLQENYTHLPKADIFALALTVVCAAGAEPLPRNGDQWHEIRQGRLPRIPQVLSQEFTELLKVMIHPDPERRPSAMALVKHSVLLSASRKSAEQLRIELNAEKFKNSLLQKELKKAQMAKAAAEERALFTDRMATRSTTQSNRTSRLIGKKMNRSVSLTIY
The term Ki denotes the dissociation constant of the complex between target and ligand, obtained from inhibition or displacement. In turn, `Cc1ccccc1-n1nc(-c2ccccc2)c2nc(Nc3ccc(N4CCN(C)CC4)cc3)ncc2c1=O` [Example 28, 6-(2-methylphenyl)-2-{[4-(4-methylpiperazin-1-yl)phenyl]amino}-8-phenylpyrimido[4,5-d]pyridazin-5(6H)-one] had a Ki of 0.8 nM. In the case of `CN1CCN(c2ccc(Nc3ncc4c(=O)n(-c5ccccc5Cl)nc(-c5ccccc5)c4n3)cc2)CC1` [Example 29, 6-(2-chlorophenyl)-2-{[4-(4-methylpiperazin-1-yl)phenyl]amino}-8-phenylpyrimido[4,5-d]pyridazin-5(6H)-one] it was less than 1 nM; in that of `COc1ccccc1-n1nc(-c2ccccc2)c2nc(Nc3ccc(N4CCN(C)CC4)cc3)ncc2c1=O` [Example 30, 6-(2-methoxyphenyl)-2-{[4-(4-methylpiperazin-1-yl)phenyl]amino}-8-phenylpyrimido[4,5-d]pyridazin-5(6H)-one], 1 nM. Take `CN1CCN(c2ccc(Nc3ncc4c(=O)n(-c5ccccc5C(F)(F)F)nc(-c5ccccc5)c4n3)cc2)CC1` [Example 31, 2-{[4-(4-methylpiperazin-1-yl)phenyl]amino}-8-phenyl-6-[2-(trifluoromethyl)phenyl]pyrimido[4,5-d]pyridazin-5(6H)-one]: affinity was put at a Ki of 0.8 nM. For `CN1CCN(c2ccc(Nc3ncc4c(=O)n(-c5ccccc5)nc(-c5ccco5)c4n3)cc2)CC1` [Example 34, 8-(2-furyl)-2-{[4-(4-methylpiperazin-1-yl)phenyl]amino}-6-phenylpyrimido[4,5-d]pyridazin-5(6H)-one], the inhibition constant Ki turned out to be 4 nM.

`C=CCn1nc(-c2ccccc2F)c2nc(Nc3ccc(N4CCN(C)CC4)cc3)ncc2c1=O` [Example 35, 6-allyl-8-(2-fluorophenyl)-2-{[4-(4-methylpiperazin-1-yl)phenyl]amino}pyrimido[4,5-d]pyridazin-5(6H)-one] registered an inhibition constant Ki of 18 nM.

With `Cc1ccccc1-n1nc(-c2ccccc2F)c2nc(Nc3ccc(N4CCN(C)CC4)cc3)ncc2c1=O` [Example 36, 8-(2-fluorophenyl)-6-(2-methylphenyl)-2-{[4-(4-methylpiperazin-1-yl)phenyl]amino}pyrimido[4,5-d]pyridazin-5(6H)-one], the Ki was 3 nM. As to `CN1CCN(c2ccc(Nc3ncc4c(=O)n(-c5ccccc5)nc(-c5ccccc5F)c4n3)cc2)CC1` [Example 37, 8-(2-fluorophenyl)-2-{[4-(4-methylpiperazin-1-yl)phenyl]amino}-6-phenylpyrimido[4,5-d]pyridazin-5(6H)-one], the affinity corresponds to a Ki of 18 nM. With `CN1CCN(c2ccc(Nc3ncc4c(=O)n(-c5ccccc5Cl)nc(-c5ccc(Cl)cc5Cl)c4n3)cc2)CC1` [Example 38, 6-(2-chlorophenyl)-8-(2,4-dichlorophenyl)-2-{[4-(4-methylpiperazin-1-yl)phenyl]amino}pyrimido[4,5-d]pyridazin-5(6H)-one], the affinity, expressed as Ki, was 24 nM. Regarding `CN1CCN(c2ccc(Nc3ncc4c(=O)n(-c5ccccc5C(F)(F)F)nc(-c5ccc(Cl)cc5Cl)c4n3)cc2)CC1` [Example 39, 8-(2,4-dichlorophenyl)-2-{[4-(4-methylpiperazin-1-yl)phenyl]amino}-6-[2-(trifluoromethyl)phenyl]pyrimido[4,5-d]pyridazin-5(6H)-one], the affinity, expressed as Ki, was 250 nM. As to `CN1CCN(c2ccc(Nc3ncc4c(=O)n(-c5ccccc5Cl)nc(-c5ccccc5F)c4n3)cc2)CC1` [Example 40, 6-(2-chlorophenyl)-8-(2-fluorophenyl)-2-{[4-(4-methylpiperazin-1-yl)phenyl]amino}pyrimido[4,5-d]pyridazin-5(6H)-one], the Ki was found to be 1 nM. The molecule `Cc1ccccc1-n1nc(-c2ccc(Cl)cc2Cl)c2nc(Nc3ccc(N4CCN(C)CC4)cc3)ncc2c1=O` [Example 41, 8-(2,4-dichlorophenyl)-6-(2-methylphenyl)-2-{[4-(4-methylpiperazin-1-yl)phenyl]amino}pyrimido[4,5-d]pyridazin-5(6H)-one] returned an inhibition constant Ki of 38 nM. As for `CN1CCN(c2ccc(Nc3ncc4c(=O)n(-c5ccccc5)nc(-c5ccc(Cl)cc5Cl)c4n3)cc2)CC1` [Example 42, 8-(2,4-dichlorophenyl)-2-{[4-(4-methylpiperazin-1-yl)phenyl]amino}-6-phenylpyrimido[4,5-d]pyridazin-5(6H)-one], the inhibition constant Ki stood at 400 nM. The value for `COc1ccccc1-n1nc(-c2ccc(Cl)cc2Cl)c2nc(Nc3ccc(N4CCN(C)CC4)cc3)ncc2c1=O` [Example 43, 8-(2,4-dichlorophenyl)-6-(2-methoxyphenyl)-2-{[4-(4-methylpiperazin-1-yl)phenyl]amino}pyrimido[4,5-d]pyridazin-5(6H)-one] was 260 nM. As for `CN1CCN(c2ccc(Nc3ncc4c(=O)n(-c5cccc(Cl)c5)nc(-c5ccc(Cl)cc5Cl)c4n3)cc2)CC1` [Example 44, 6-(3-chlorophenyl)-8-(2,4-dichlorophenyl)-2-{[4-(4-methylpiperazin-1-yl)phenyl]amino}pyrimido[4,5-d]pyridazin-5(6H)-one], the affinity, expressed as Ki, was 520 nM. In turn, `CN1CCN(c2ccc(Nc3ncc4c(=O)n(-c5c(Cl)cccc5Cl)nc(-c5ccccc5F)c4n3)cc2)CC1` [Example 45, 6-(2,6-dichlorophenyl)-8-(2-fluorophenyl)-2-{[4-(4-methylpiperazin-1-yl)phenyl]amino}pyrimido[4,5-d]pyridazin-5(6H)-one] yielded a Ki of 1 nM. `CN1CCN(c2ccc(Nc3ncc4c(=O)n(-c5c(Cl)cccc5Cl)nc(-c5ccccc5)c4n3)cc2)CC1` [Example 46, 6-(2,6-dichlorophenyl)-2-{[4-(4-methylpiperazin-1-yl)phenyl]amino}-8-phenylpyrimido[4,5-d]pyridazin-5(6H)-one] had a Ki of 0.3 nM. The molecule `C=CCn1nc(-c2ccc(Cl)cc2Cl)c2nc(Nc3ccc(N4CCN(C)CC4)cc3)ncc2c1=O` [Example 47, 6-allyl-8-(2,4-dichlorophenyl)-2-{[4-(4-methylpiperazin-1-yl)phenyl]amino}pyrimido[4,5-d]pyridazin-5(6H)-one] registered an inhibition constant Ki of 240 nM.

`Cc1ccccc1-n1nc(C2CCCC2)c2nc(Nc3ccc(N4CCN(C)CC4)cc3)ncc2c1=O` [Example 49, 8-cyclopentyl-6-(2-methylphenyl)-2-{[4-(4-methylpiperazin-1-yl)phenyl]amino}pyrimido[4,5-d]pyridazin-5(6H)-one] registered a Ki of 9 nM. Regarding `Cc1cccc(-c2nn(-c3ccccc3)c(=O)c3cnc(Nc4ccc(N5CCN(C)CC5)cc4)nc23)c1` [Example 50, 8-(3-methylphenyl)-2-{[4-(4-methylpiperazin-1-yl)phenyl]amino}-6-phenylpyrimido[4,5-d]pyridazin-5(6H)-one], the affinity corresponds to a Ki of 5 nM.

In turn, `Cc1cccc(-c2nn(-c3ccccc3Cl)c(=O)c3cnc(Nc4ccc(N5CCN(C)CC5)cc4)nc23)c1` [Example 51, 6-(2-chlorophenyl)-8-(3-methylphenyl)-2-{[4-(4-methylpiperazin-1-yl)phenyl]amino}pyrimido[4,5-d]pyridazin-5(6H)-one] displayed an inhibition constant (Ki) of 0.4 nM. For the molecule `Cc1cccc(-c2nn(-c3ccccc3C)c(=O)c3cnc(Nc4ccc(N5CCN(C)CC5)cc4)nc23)c1` [Example 52, 6-(2-methylphenyl)-8-(3-methylphenyl)-2-{[4-(4-methylpiperazin-1-yl)phenyl]amino}pyrimido[4,5-d]pyridazin-5(6H)-one], the inhibition constant (Ki) was 1 nM.

(Values after patent US8796289B2 (AbbVie Inc., priority 2011, dated 2014).)
